Results as given in US4048334A, “Active derivatives of methylamino in therapeutic compositions and methods of use” (priority 1974, dated 1977).

Tested on: tremorine-induced cholinergic effects
Experiment: Anti-tremorine test (cholinolytic properties in vivo)
Design: species or system mice (male, OF1 strain); key to peripheral cholinergic effects score (salivation, sweating, weeping): 0: no action; 1: slight action; 2: average action; 3: strong action; 4: very strong action
Experimental: For this purpose, the following test was performed with a view to determining the anti-tremorine properties of Compound 1.
When injected into mice, tremorine produces peripheral effects i.e. weeping, sweating, salivation and diarrhoea and central effects i.e. tremor and akinesia. Such effects are due to an increase in the amount of intracerebral acetylcholine and serotonine.
Male mice of the OF1 strain weighing about 22 g were divided into batches of 10. […] Thirty minutes later a dose of 10 mg/kg of tremorine was injected by intraperitoneal route and, at different times after this injection, note was taken of the cholinergic effects on each animal in accordance with the following scale: […]

CCCC(N)(CCC)CCC [Compound 1]
peripheral cholinergic effects score (salivation, sweating, weeping) (5 mg/kg oral, 20, 30 and 40 minutes after tremorine 10 mg/kg i.p.): 4
central cholinergic effects (normal and provoked tremor) (5 mg/kg oral, identical to the peripheral score (4)): Identical results
antitremorine properties (mouse, in vivo): devoid of antitremorine properties
